These results are taken from patent publication US6746835B2, “Thermally processed image recording material” (Fuji Photo Film Co., Ltd., priority 2001, dated 2004).

This data set is described as follows: pKa of the conjugate acid of the enolate anion (acid/base titration or UV absorption method). The data set is classed as physicochemical. The following applies: mixed solvent of THF/water=3/2. The source says: The conjugate acid of the enolate anion in the formula (1) has a pKa value of 3.0-6.0. If the pKa value is less than 3.0, ultrahigh contrast images cannot be obtained. On the other hand, if it exceeds 6.0, stability before light exposure and development is degraded. The pKa value defined herein is a value obtained by the acid/base titration method or the UV absorption method in a mixed solvent of THF/water=3/2.
`O=C1/C(=C/O)N=C(c2cc(C(F)(F)F)cc(C(F)(F)F)c2)N1c1ccc(Cl)cc1` [Compound A-6] had a pKa of 3.8.
For `CCCCCCCCCCCCNc1ccc(N2C(=O)/C(=C\O)N=C2C(F)(F)F)cc1` [Compound A-18] the value was 3.1; for `CCCCCCCCCCCCc1cc(CCCCCCCCCCCC)cc(N2N=C/C(=C/O)C2=O)c1` [Compound R-1], not above 2.9.
With `CCCCCCCCCCCCCCCc1cccc(CCCN2C(=O)/C(=C\O)c3ccccc32)c1` [Compound R-2] the figure was 6.3.
